The source of these data is the SangsterLogP compilation.

The nature of the series: method code SF-AS, from DOI: 10.1002/ardp.19893220504, PMID: 2569302. The conditions noted are these: pH 7.4.
Turning to `COc1ccc2c(=O)c(C)c(-c3ccc(Cl)cc3)oc2c1CN1CCCC1`, the logD was 2.75.
Consider `COc1ccc2c(=O)c(C)c(-c3ccc([N+](=O)[O-])cc3)oc2c1CN(C)C`, for which the pH-dependent lipophilicity (logD) came to 1.73.
Take `CCN(CC)Cc1c(OC)ccc2c(=O)c(C)c(-c3ccc(F)cc3)oc12`: the log distribution coefficient (logD) came to 1.99.
`COc1ccc2c(=O)c(C)c(-c3ccc(F)cc3)oc2c1CN1CCOCC1` yielded a logD of 3.26.
Turning to `COc1ccc2c(=O)c(C)c(-c3ccc(F)cc3)oc2c1CN1CCCCC1`, the logD is 2.71.
The compound `COc1ccc2c(=O)c(C)c(-c3ccc(F)cc3)oc2c1CN1CCCC1` gave a logD of 2.13.
Compound `COc1ccc2c(=O)c(C)c(-c3ccc(C)cc3)oc2c1CN1CCCCC1` showed a logD of 3.13.
To `COc1ccc2c(=O)c(C)c(-c3ccc(C)cc3)oc2c1CN1CCOCC1` belongs 3.71.
For `CCN(CC)Cc1c(OC)ccc2c(=O)c(C)c(-c3ccc(Cl)cc3)oc12`, the logD was found to be 2.66.
The compound `COc1ccc2c(=O)c(C)c(-c3ccc([N+](=O)[O-])cc3)oc2c1CN1CCCCC1` gave a logD of 2.53.
As to `CCN(CC)Cc1c(OC)ccc2c(=O)c(C)c(-c3ccc([N+](=O)[O-])cc3)oc12`, the logD turned out to be 1.7.
In the case of `COc1ccc2c(=O)c(C)c(-c3ccc(C)cc3)oc2c1CN(C)C`, the logD came out at 2.41.
`COc1ccc2c(=O)c(C)c(-c3ccc([N+](=O)[O-])cc3)oc2c1CN1CCCC1` yielded a logD of 1.83.
Next, `COc1ccc2c(=O)c(C)c(-c3ccc(Cl)cc3)oc2c1CN(C)C`: 2.62; `CCN(CC)Cc1c(OC)ccc2c(=O)c(C)c(-c3ccccc3)oc12`: 1.99; `COc1ccc2c(=O)c(C)c(-c3ccccc3)oc2c1CN1CCCCC1`: 2.63.
As for `COc1ccc2c(=O)c(C)c(-c3ccccc3)oc2c1CN(C)C`, the logD is 1.93.
Next, `COc1ccc2c(=O)c(C)c(-c3ccccc3)oc2c1CN1CCOCC1`: 3.25; `COc1ccc2c(=O)c(C)c(-c3ccc(C)cc3)oc2c1CN1CCCC1`: 2.5.
Regarding `COc1ccc2c(=O)c(C)c(-c3ccc([N+](=O)[O-])cc3)oc2c1CN1CCOCC1`, the logD came out at 3.02.
To `CCN(CC)Cc1c(OC)ccc2c(=O)c(C)c(-c3ccc(C)cc3)oc12` belongs 2.46.
For the compound `COc1ccc2c(=O)c(C)c(-c3ccc(Cl)cc3)oc2c1CN1CCOCC1`, the logD amounted to 3.94.
As to `COc1ccc2c(=O)c(C)c(-c3ccc(Cl)cc3)oc2c1CN1CCCCC1`, the logD worked out at 3.46.
To `COc1ccc2c(=O)c(C)c(-c3ccc(F)cc3)oc2c1CN(C)C` belongs 1.97.
